From publication PMC6162693, “Investigation into the Thermal Response and Pharmacological Activity of Substituted Schiff Bases on α-Amylase and α-Glucosidase” (Antioxidants, 2018)
Values after ≈ are worked out from the molar mass of the structure shown. Where two headings read alike, the source gives them in different places.

Legend:
[1] = DPPH radical scavenging activity; details: absorbance at 517 nm, 30 min; mean ± SD (n = 3)
Procedure: (§1) The antioxidant activities of Schiff bases (1–9) were determined by DPPH, ABTS^+, H2O2, ferric reducing power assays, and compared with 3,4,5-trihydroxybenzoic acid (10), 5-(1,2-dihydroxyethyl)-3,4-dihydroxyfuran-2(5H)-one (11), and 2-(3,4-dihydroxyphenyl)-3,5,7-trihydroxy-4H-chromen-4-one (12) (as controls).
The scavenging activity of compounds (1–12) was evaluated by adding an ethanolic solution of DPPH (300 μL, 0.05 mM) and incubated for 30 min in the dark. After that, changes in the absorbance of the mixture were measured at 517 nm on a UV-Vis spectrophotometer. The percentage radical scavenging activities (%RSA) and half maximal inhibitory concentration (IC50) of the compounds were estimated from Equation (2) and by linear regression analysis, respectively. All studies were carried out in triplicate. (2) % RSA= 100⌊(Abs. of DPPH − Abs. of test compound)/(Abs. of DPPH)⌋

[2] = ABTS radical cation decolourisation assay; details: absorbance at 734 nm, 30 min; mean ± SD (n = 3)
Procedure: as §1
A mixture of ABTS (960.2 mg) and potassium persulphate (165.6 mg) was dissolved in 250 mL of distilled water to generate the blue-green ABTS^+ solution. The ABTS solution was stored away in the dark at ambient temperature for 24 h to generate sufficient ABTS radical cation (ABTS^+), then the absorbance was adjusted to 0.9547 with distilled water. Precisely 40 µL solution of the compounds were added to 3 mL ABTS^+ solution and incubated at 298 K for 30 min in the dark. Changes in concentration of ABTS^+ were measured at 734 nm on a spectrophotometer. The degree of ABTS^+ decolourisation was a template for evaluating the percentage proton-donating potential (%PDP) of the test compounds [24]; estimated from Equation (3). The IC50 (μM) of the compounds were determined by linear regression analysis, and all analyses were carried out in triplicate. (3) % PDP = 100⌊(Abs. of ABTS ^+ − Abs. of test compound)/(Abs. of ABTS^+)⌋

[3] = H2O2-scavenging activity; details: absorbance at 230 nm; mean ± SD (n = 3)
Procedure: as §1
According to the methods of Ruch et al., the H2O2 scavenging activity of compounds (1–12) was evaluated. To 100 µL aliquot of the test compounds was added 0.4 mL of 50 mM phosphate buffer followed by 0.6 mL of 2 mM H2O2 solution prepared in 50 mM phosphate buffer (pH 6.8). The absorbance of the mixture was measured at 230 nm, thereafter, the %H2O2 scavenging activity (Equation (4)) and IC50 (μM) of the compounds 1–12 was determined. All analyses were carried out in triplicate. (4) % H2O2 − scavenging activity = 100⌊(Abs. of H2O2 − Abs. of test compound)/(Abs. of H2O2)⌋

[4] = Radical scavenging over DPPH, ABTS and H2O2 assays; details: lower limit over the three radical assays; read-out: IC50 values for quenching the radicals (lowest over DPPH, ABTS, H2O2)
Procedure: as §1
The scavenging activity of compounds (1–12) was evaluated by adding an ethanolic solution of DPPH (300 μL, 0.05 mM) and incubated for 30 min in the dark. After that, changes in the absorbance of the mixture were measured at 517 nm on a UV-Vis spectrophotometer. […]
A mixture of ABTS (960.2 mg) and potassium persulphate (165.6 mg) was dissolved in 250 mL of distilled water to generate the blue-green ABTS^+ solution. The ABTS solution was stored away in the dark at ambient temperature for 24 h to generate sufficient ABTS radical cation (ABTS^+), then the absorbance was adjusted to 0.9547 with distilled water. […] Changes in concentration of ABTS^+ were measured at 734 nm on a spectrophotometer. […] The IC50 (μM) of the compounds were determined by linear regression analysis, and all analyses were carried out in triplicate. […]
According to the methods of Ruch et al., the H2O2 scavenging activity of compounds (1–12) was evaluated. […] The absorbance of the mixture was measured at 230 nm, thereafter, the %H2O2 scavenging activity (Equation (4)) and IC50 (μM) of the compounds 1–12 was determined. […]

[5] = test system: Staphylococcus aureus; assay: Broth microdilution antimicrobial assay, S. aureus; format: cell-based; details: for MBC: Staphylococcus aureus, read-out: MBC S. aureus
Procedure: (§2) Exactly 1.5 mg of sodium;10-oxido-7-oxophenoxazin-10-ium-3-olate was dissolved in 100 mL of distilled water, vortexed, filtered, sterilised, and stored at 4 °C for a maximum of 14 days before being applied as a growth indicator. 1000 μM stock solution of Schiff bases (1–9) was prepared in DMSO.
(§3) Fungi (Aspergillus niger, Candida albicans), Gram-positive bacteria (Staphylococcus aureus, Enterococcus faecalis), and Gram-negative bacteria (Salmonella typhi, Escherichia coli).
(§4) Colonies from a 24 h culture agar plate were collected with a loop and transferred to a tube containing lysogeny broth (LB). The various suspensions were incubated at 37 °C and the size adjusted to 1.5 × 10^6 CFU/mL [27].
(§5) The antimicrobial activity of Schiff bases (1–9), was evaluated using 96-well broth microdilution method as described by de Rapper et al. (2013) and Akhalwaya et al. (2018) with slight modifications. Columns 1–11 was filled 50 µL LB, followed by the addition of 50 µL of Schiff base to column 1. Thereafter, 50 µL of Schiff bases from column 1 was transferred by multichannel pipette to columns 2–10, resulting in 50 µL Schiff bases per well. Column 11 contained 100 µL of diluted standardised inoculum, while Column 12 contained 100 µL of LB as a control to monitor sterility. Then, 50 µL of the microorganism suspension was then added to columns 1–10 and the control column 11. The plates were incubated at 37 °C for 24 h, followed by the addition of 30 µL of growth indicator solution and further incubated for 2 h for the observation of colour change. On completion of incubation, the columns with blue indicator colour were reported as the MIC (µM) values. The columns with a concentration higher than the MIC value were plated on nutrient agar to determine the minimum bactericidal and fungicidal concentrations.

[6] = test system: Enterococcus faecalis; assay: Broth microdilution antimicrobial assay, E. faecalis; format: cell-based; details: for MBC: Enterococcus faecalis, read-out: MBC E. faecalis
Procedure: as §2, §3, §4, §5

[7] = test system: Escherichia coli; assay: Broth microdilution antimicrobial assay, E. coli; format: cell-based; details: for MBC: Escherichia coli, read-out: MBC E. coli
Procedure: as §2, §3, §4, §5

[8] = test system: Salmonella typhi; assay: Broth microdilution antimicrobial assay, S. typhi; format: cell-based; details: Salmonella enterica, TYPHI, read-out: MBC S. typhi
Procedure: as §2, §3, §4, §5

[9] = test system: Aspergillus niger; assay: Broth microdilution antimicrobial assay, A. niger; format: cell-based
Procedure: as §2, §3, §4, §5

[10] = test system: Candida albicans; assay: Broth microdilution antimicrobial assay, C. albicans; format: cell-based
Procedure: as §2, §3, §4, §5

[11] = test system: Fungi (Aspergillus niger, Candida albicans); assay: Broth microdilution MIC, antifungal (fungus not specified); format: cell-based; details: read-out: MIC (antifungal)
Procedure: as §2, §3, §4
The antimicrobial activity of Schiff bases (1–9), was evaluated using 96-well broth microdilution method as described by de Rapper et al. (2013) and Akhalwaya et al. (2018) with slight modifications. Columns 1–11 was filled 50 µL LB, followed by the addition of 50 µL of Schiff base to column 1. Thereafter, 50 µL of Schiff bases from column 1 was transferred by multichannel pipette to columns 2–10, resulting in 50 µL Schiff bases per well. Column 11 contained 100 µL of diluted standardised inoculum, while Column 12 contained 100 µL of LB as a control to monitor sterility. Then, 50 µL of the microorganism suspension was then added to columns 1–10 and the control column 11. […]

[12] = biological target: α-glucosidase; assay: α-Glucosidase inhibitory activity; format: biochemical; details: Means ×10^2 ± SD from at least three experiments
Procedure: The inhibitory activity of Schiff bases (1-9) against α-glucosidase was assessed by the method previously described by […] et al. […] Then, approximately 0.2 mL of Schiff base solution was mixed with 1.0 mL of 50 mM sodium phosphate buffer (pH 6.9) and 50 μL of α-glucosidase solution (2 U/mL). Thereafter, incubated at 37 °C for 10 min, followed by the addition of exactly 50 μL of 0.7 mM p-nitrophenyl-α-D-glucopyranoside solution in 50 mM sodium phosphate buffer (pH 6.9) and further incubated for 30 min at 37 °C. The reaction was terminated by the addition of 2.0 mL solution of 0.5 M Na2CO3. 0.3 mL aliquot of the above mixture was mixed with 4.7 mL of distilled water and the absorbance measured at 405 nm. […] (6) α - glucosidase inhibition (%) = (Ae - ASB/Ae)100 where Ae is the absorbance of the enzyme solution after incubation and ASB is the absorbance after incubation of Schiff bases solution. The assay was performed in triplicate.

[13] = biological target: α-amylase; assay: α-Amylase inhibitory activity; format: biochemical; details: Means ×10^2 ± SD from at least three experiments
Procedure: The α-amylase inhibitory activity of Schiff bases (1–9) was evaluated by the method reported by Xiao et al. with slight modifications. Substrate solution is prepared by dissolving 1.0 g of starch in 50 mL of 0.4 M NaOH and heated at 100 °C for 5 min. The substrate solution was adjusted to a neutral pH by the addition of 0.1 M HCl, cooled on crushed ice and made to 100 mL in a standard volumetric flask with distilled water. […] Using a microplate, 40 μL substrate and 20 μL Schiff base solution were mixed, then preincubated at 37 °C for 3 min. Thereafter, 20 μL of 50 μg/mL α-amylase solution was dispensed into each well, and further incubated for 15 min. The reaction was terminated by the addition of 80 μL HCl (0.1 M); followed by 200 μL of 1 mM iodine solution, and the absorbances measured at 650 nm. Inhibitory activity was calculated from Equation (5):(5) α − amylase inhibition (%) = (A2 − A1/A4 − A3)100 where A1 is the absorbance of Schiff base, starch, and α-amylase solution after incubation, A2 is the absorbance of Schiff base and starch solution after incubation, A3 is the absorbance of starch and amylase solution after incubation, and A4 is the absorbance of a starch solution after incubation. Thereafter, the IC50 value was determined from the plot of % inhibition versus concentration.

[14] = relative to o-hydroxy derivative (8)

## O=[N+]([O-])c1ccc(C=Nc2c(O)cc(S(=O)(=O)O)c3ccccc23)cc1 [Compound 7, 4-(4-nitrobenzylideneamino)-3-hydroxynaphthalene-1-sulphonic acid]
[1]
  IC50: 200 µM
[2]
  IC50: 50 ± 5 µM
[3]
  IC50: 160 ± 90 µM
[4]
  IC50: ≥ 50 µM
[5]
  MBC: > 2.69 µM
[5]; [14]
  antibacterial activity (growth inhibition), S. aureus: very potent
[6]
  MBC: > 2.69 µM
[6]; [14]
  antibacterial activity (growth inhibition), E. faecalis: very potent
[7]
  MBC: 1.34 µM (≈ 0.499 µg/mL)
[7]; [14]
  antibacterial activity (growth inhibition), E. coli: very potent
[8]
  MBC: > 2.69 µM
[9]; * = no fungicidal effect at the evaluated concentration, n = 3, read-out: MFC A. niger
  MFC: 2.69 µM (≈ 1 µg/mL)
[10]; 24 h, * = no fungicidal effect at the evaluated concentration, n = 3, read-out: MFC C. albicans
  MFC: 1.53 µM (≈ 0.57 µg/mL)
[11]
  MIC: 0.67 µM (≈ 0.249 µg/mL)
[12]
  IC50: 961 ± 84 µM
[13]
  IC50: 730 ± 16 µM
other
  melting point: 200 °C

## O=[N+]([O-])c1ccc(C=Nc2cc(O)[nH]n2)cc1 [Compound 1, 3-(((4-nitrophenyl)methylidene)amino)-1H-pyrazol-5-ol]
[1]
  IC50: 290 ± 9 µM
[2]
  IC50: 410 ± 6 µM
[3]
  IC50: 350 ± 5 µM
[4]
  IC50: ≥ 290 µM
[5]
  MBC: 4.31 µM (≈ 1 µg/mL)
[6]
  MBC: 4.31 µM (≈ 1 µg/mL)
[7]
  MBC: 4.31 µM (≈ 1 µg/mL)
[8]
  MBC: 2.15 µM (≈ 0.499 µg/mL)
[9]; read-out: MFC A. niger
  MFC: > 4.31 µM
[10]; read-out: MFC C. albicans
  MFC: > 4.31 µM
[12]
  IC50: 540 ± 44 µM
[13]
  IC50: 420 ± 36 µM
other
  melting point: 285 °C

## Oc1cc(N=Cc2ccccc2)n[nH]1 [Compound 3, 3-((phenylmethylidene)amino)-1H-pyrazol-5-ol]
[1]
  IC50: 360 ± 5 µM
[2]
  IC50: 450 ± 7 µM
[3]
  IC50: 410 ± 8 µM
[5]
  MBC: > 5.35 µM
[6]
  MBC: > 5.35 µM
[7]
  MBC: 2.67 µM (≈ 0.5 µg/mL)
[8]
  MBC: > 5.35 µM
[9]; read-out: MFC A. niger
  MFC: > 5.35 µM
[10]; read-out: MFC C. albicans
  MFC: > 5.35 µM
[11]
  MIC: 0.67 µM (≈ 0.125 µg/mL)
[12]
  IC50: 560 ± 82 µM
[13]
  IC50: 200 ± 74 µM
other
  melting point: 266 °C

## Oc1ccc(N=Cc2ccccc2)cc1 [Compound 6, 4-(benzylideneamino)phenol]
[1]
  IC50: 380 ± 2 µM
[2]
  IC50: 260 ± 6 µM
[3]
  IC50: 380 ± 5 µM
[5]
  MBC: > 5.07 µM
[6]
  MBC: > 5.07 µM
[7]; n = 3
  MBC: 2.54 µM (≈ 0.501 µg/mL)
[8]
  MBC: > 5.07 µM
[9]; read-out: MFC A. niger
  MFC: > 5.07 µM
[10]; read-out: MFC C. albicans
  MFC: > 5.07 µM
[12]
  IC50: 1420 ± 1730 µM
[13]
  IC50: 1410 ± 17 µM
other
  melting point: 302 °C
